Assay results taken from the NIST ThermoML archive (doi:10.1016/j.fluid.2011.12.007).
Numbers after ± are expanded uncertainties.

Tests used:
[1] = xn = mol fraction of the nth substance listed; details: 303.15 K, Maximal bubble pressure
[2] = for mass density: 101.33 kPa, Liquid, Vibrating tube method; for surface tension liquid-gas: Maximal bubble pressure
[3] = refractive index (Na D-line) (dimensionless); details: 298.15 K; 101.33 kPa; Liquid; Standard Abbe refractometry
[4] = Boiling temperature at pressure P; details: 101.33 kPa; Liquid; Ebulliometric method (Recirculating still)

CCCCCC [hexane] + C1CCOCC1
surface tension liquid-gas ([1]; x1 = 1): 17.4 ± 0.25 mN/m

CCCCCC [hexane]
mass density ([2]; 298.15 K): 655.19 ± 0.17 kg/m3
refractive index [3]: 1.37374 ± 0.00031

C1CCOCC1 [tetrahydropyran]
surface tension liquid-gas ([2]; 283.15 K): 29.61 ± 0.28 mN/m
surface tension liquid-gas ([2]; 288.15 K): 29.15 ± 0.28 mN/m
surface tension liquid-gas ([2]; 293.15 K): 28.56 ± 0.28 mN/m
surface tension liquid-gas ([2]; 298.15 K): 28 ± 0.28 mN/m
mass density ([2]; 298.15 K): 879.03 ± 0.09 kg/m3
surface tension liquid-gas ([2]; 303.15 K): 27.14 ± 0.27 mN/m
surface tension liquid-gas ([2]; 308.15 K): 26.5 ± 0.27 mN/m
surface tension liquid-gas ([2]; 313.15 K): 25.55 ± 0.27 mN/m
surface tension liquid-gas ([2]; 318.15 K): 25.25 ± 0.27 mN/m
surface tension liquid-gas ([2]; 323.15 K): 24.23 ± 0.27 mN/m
surface tension liquid-gas ([2]; 328.15 K): 23.6 ± 0.26 mN/m
surface tension liquid-gas ([2]; 333.15 K): 22.75 ± 0.26 mN/m
Boiling temperature at pressure P [4]: 88.21 ± 0.04 °C
refractive index [3]: 1.42 ± 0.00031

C1CCOCC1 [tetrahydropyran] + CCCCCC
surface tension liquid-gas ([1]; x2 = 0): 27.1 ± 0.27 mN/m
surface tension liquid-gas ([1]; x2 = 0.045): 26.47 ± 0.27 mN/m
surface tension liquid-gas ([1]; x2 = 0.09): 25.64 ± 0.27 mN/m
surface tension liquid-gas ([1]; x2 = 0.181): 24.39 ± 0.27 mN/m
surface tension liquid-gas ([1]; x2 = 0.282): 23.17 ± 0.26 mN/m
surface tension liquid-gas ([1]; x2 = 0.383): 22.03 ± 0.26 mN/m
surface tension liquid-gas ([1]; x2 = 0.487): 21.13 ± 0.26 mN/m
surface tension liquid-gas ([1]; x2 = 0.589): 20.39 ± 0.26 mN/m
surface tension liquid-gas ([1]; x2 = 0.674): 19.47 ± 0.25 mN/m
surface tension liquid-gas ([1]; x2 = 0.786): 18.77 ± 0.25 mN/m
surface tension liquid-gas ([1]; x2 = 0.899): 18.12 ± 0.25 mN/m
surface tension liquid-gas ([1]; x2 = 0.964): 17.46 ± 0.25 mN/m
